What was measured:
Format in all cases: cell-based, human
[1] = system: LNCap; test: XTT cell proliferation assay (growth inhibition); conditions: inhibitor pretreatment, then protoapigenone for 12 hours
Method: (§1) Cells were seeded at 7×10^3 per well in 96-well culture plates before treatment with different concentrations of protoapigenone for 12, 24 and/or 48 hours. Next, the cytotoxicity of protoapigenone was determined using XTT cell proliferation assay (Sigma, St. Louis, Mo.). The absorbance of wavelength at 490 nm (OD490) and 650 nm (OD650) were determined respectively by enzyme-linked immunosorbent assay (ELISA) reader, and 50% of inhibitory concentration (IC50) was calculated by the value of OD490-OD650. In addition, in order to evaluate the long-term effect, the cells were treated with different concentration of protoapigenone for 3 hours, then were incubated with fresh medium for 14 days so as to form colonies. Finally, the cells were stained with crystal violet and were observed under the microscope.

[2] = system: LNCap cells; test: Cell cycle analysis (PI flow cytometry); conditions: inhibitor pretreatment
Method: The ovarian cancer cells and the prostate cancer cells respectively were treated with protoapigenone at different concentrations (0, 2.5, 5 and 10 μM) for 24 hours and 6 hours (or 12 hours). These cells were harvested by trypsin and fixed with 70% ethanol for 1 hour, washed with phosphate buffered saline (PBS) twice, and resuspended in propidium iodide (PI)/RNase A solution for 30 minutes. In accordance with the mechanism of DNA stained with propidium iodide, the cell cycle and sub-G1 distribution were detected by the FACScan flow cytometry (Becton Dickinson, San Jose, Calif.), and data analysis was done with CellQuest software (BD Bioscience).

[3] = system: p38 MAPK; test: Immunoblotting, phosphorylation in LNCap cells; conditions: LNCap pretreated 1 hour with inhibitor, then protoapigenone 1 hour
Excerpt: The concentration of protein supernatant was further determined using the Bio-Rad protein assay kit (Bio-Rad Laboratories, Hercules, Calif.). Whole cell lysates were separated on polyacrylamide sodium dodecyl sulfate (SDS) gels and the proteins were transferred onto the nitrocellulose membrane. Proteins were detected sequentially by the specific primary antibodies, followed by peroxidase-conjugated secondary antibodies, and visualized by the Enhanced chemiluminescence detection system (Amersham, N.J.).

[4] = system: LNCap cells; test: Protoapigenone-induced apoptosis with kinase inhibitor pretreatment
Method: Human prostate cancer cell line LNCap used in the present invention was purchased from ATCC, Manassas, Va. and was cultured in RPMI 1640 medium supplemented with 10% FBS and penicillin/streptomycin/amphotericin B. LNCap cells were treated with 2.5, 5 and 10 μM protoapigenone respectively and were analyzed. In some experiments, LNCap cells were treated with p38 mitogen-activated protein kinase (MAPK) inhibitor SB203580 or c-Jun NH2-terminal kinase (JNK) ½ inhibitor SP600125 for one hour before protoapigenone treatment.

[5] = system: MDAH-2774; test: XTT cell proliferation assay (cytotoxicity)
Method: as §1

Row | Compound | survival rate of LNCap cells vs cells only treated with protoapigenone [1] | effect of inhibitor on protoapigenone-induced S and G2/M phases arrest [2] | protoapigenone-induced phosphorylation (activation) of p38 MAPK in presence of inhibitor [3] | protoapigenone-induced apoptotic percentage in presence of inhibitor [4] | inhibition of cell growth ([5]; MDAH-2774, 5 μM cisplatin) | inhibition of cell growth ([5]; MDAH-2774, 10 μM cisplatin)
1 | C[S+]([O-])c1ccc(-c2nc(-c3ccncc3)c(-c3ccc(F)cc3)[nH]2)cc1 (stereo not drawn) [SB203580, reference compound] | higher | significantly attenuates | blocked | decreased |  | 
2 | N.N.[Cl][Pt][Cl] [cisplatin, cis-diamminedichloridoplatinum (II), reference compound] |  |  |  |  | 28.48% | 36.91%

From patent US20100062078A1, “PHARMACEUTICAL COMPOSITION FOR TREATING CANCER AND THE SIGNALING PATHWAY THEREOF” (priority 2008, published 2010)
